Reference: ChEMBL document CHEMBL2321679, “Immunomodulatory activity of an anti-HSV-1 synthetic stigmastane analog” (Bioorg Med Chem, 2013)
Values belong to the compound of their own block, whether it stands above or below them. Activity calls are given as the source filed them. No cut-off for these calls is given here.

Key:
[1] = test system: J774.A1; assay: Immunomodulatory activity in LPS-stimulated mouse J744A.1 cells assessed as increase of TLR4 gene expression at 40 uM after 6 hrs by RT-PCR analysis relative to control; assay type: functional
[2] = target: Transcription factor p65 (Homo sapiens) (UniProt Q04206); assay: Increase of NF-kappaB p65-mediated IL-8 release in human IOBA-NHC cells at 40 uM after 24 hrs by ELISA; assay type: cell-based
[3] = Immunomodulatory activity in HSV1 KOS infected human HCLE cells assessed as increase of IL-8 gene expression at 40 uM after 6 hrs by RT-PCR analysis relative to control; assay type: functional
[4] = test system: J774.A1; assay: Inhibition of LPS-induced […] production in mouse J744A.1 cells at 40 uM after 24 hrs by ELISA; assay type: functional; conditions: J774.A1, 24 h
[5] = test system: J774.A1; assay: Immunomodulatory activity in LPS-stimulated mouse J744A.1 cells assessed as increase of Slpi gene expression at 40 uM after 6 hrs by RT-PCR analysis relative to control; assay type: functional
[6] = test system: J774.A1; assay: Immunomodulatory activity in LPS-stimulated mouse J744A.1 cells assessed as decrease of Dusp2 gene expression at 40 uM after 6 hrs by RT-PCR analysis relative to control; assay type: functional
[7] = target: Transcription factor p65 (Homo sapiens) (UniProt Q04206); assay: Effect on NF-kappaB p65-mediated TNFalpha release in human IOBA-NHC cells at 40 uM after 24 hrs by ELISA; assay type: cell-based
[8] = test system: J774.A1; assay: Immunomodulatory activity in LPS-stimulated mouse J744A.1 cells assessed as increase of Socs2 gene expression at 40 uM after 6 hrs by RT-PCR analysis relative to control; assay type: functional
[9] = test system: J774.A1; assay: Immunomodulatory activity in LPS-stimulated mouse J744A.1 cells assessed as increase of Csf1 gene expression at 40 uM after 6 hrs by RT-PCR analysis relative to control; assay type: functional
[10] = test system: J774.A1; assay: Immunomodulatory activity in LPS-stimulated mouse J744A.1 cells assessed as increase of IL-10 gene expression at 40 uM after 6 hrs by RT-PCR analysis relative to control; assay type: functional
[11] = target: Transcription factor p65 (Homo sapiens) (UniProt Q04206); assay: Effect on NF-kappaB p65-mediated IL-6 release in human IOBA-NHC cells at 40 uM after 24 hrs by ELISA; assay type: cell-based
[12] = target: Transcription factor p65 (Homo sapiens) (UniProt Q04206); assay: Effect on NF-kappaB p65-mediated IL-6 release in human HCLE cells at 40 uM after 24 hrs by ELISA; assay type: cell-based
[13] = test system: J774.A1; assay: Inhibition of LPS-induced IL-6 production in mouse J744A.1 cells after 24 hrs by ELISA; assay type: functional, cell-based
[14] = target: Transcription factor p65 (Homo sapiens) (UniProt Q04206); assay: Inhibition of NF-kappaB p65-mediated IL-6 release in HSV1 KOS infected human IOBA-NHC cells at 40 uM after 24 hrs by ELISA; assay type: cell-based
[15] = target: Transcription factor p65 (Homo sapiens) (UniProt Q04206); assay: Inhibition of NF-kappaB p65 activation in HSV1 KOS infected human HCLE cells assessed as reduction of NF-kappaB p65 translocation at 40 uM after 24 hrs by indirect immunofluorescence assay; assay type: cell-based
[16] = target: Transcription factor p65 (Homo sapiens) (UniProt Q04206); assay: Increase of NF-kappaB p65-mediated IL-8 release in human HCLE cells at 40 uM after 24 hrs by ELISA; assay type: cell-based
[17] = test system: J774.A1; assay: Immunomodulatory activity in LPS-stimulated mouse J744A.1 cells assessed as increase of Il12b gene expression at 40 uM after 6 hrs by RT-PCR analysis relative to control; assay type: functional
[18] = test system: J774.A1; assay: Immunomodulatory activity in LPS-stimulated mouse J744A.1 cells assessed as increase of Atf3 gene expression at 40 uM after 6 hrs by RT-PCR analysis relative to control; assay type: functional
[19] = target: Transcription factor p65 (Homo sapiens) (UniProt Q04206); assay: Inhibition of NF-kappaB p65 activation in HSV1 KOS infected human IOBA-NHC cells assessed as reduction of NF-kappaB p65 translocation at 40 uM after 24 hrs by indirect immunofluorescence assay; assay type: cell-based
[20] = test system: J774.A1; assay: Immunomodulatory activity in LPS-stimulated mouse J744A.1 cells assessed as increase of Ifi47 gene expression at 40 uM after 6 hrs by RT-PCR analysis relative to control; assay type: functional
[21] = test system: J774.A1; assay: Immunomodulatory activity in LPS-stimulated mouse J744A.1 cells assessed as increase of IL-6 gene expression at 40 uM after 6 hrs by RT-PCR analysis relative to control; assay type: functional
[22] = target: Transcription factor p65 (Homo sapiens) (UniProt Q04206); assay: Inhibition of NF-kappaB p65-mediated IL-8 release in HSV1 KOS infected human IOBA-NHC cells at 40 uM after 24 hrs by ELISA; assay type: cell-based
[23] = target: Transcription factor p65 (Homo sapiens) (UniProt Q04206); assay: Inhibition of NF-kappaB p65-mediated TNFalpha release in HSV1 KOS infected human IOBA-NHC cells at 40 uM after 24 hrs by ELISA; assay type: cell-based
[24] = Immunomodulatory activity in HSV1 KOS infected human HCLE cells assessed as increase of CXCL2 gene expression at 40 uM after 6 hrs by RT-PCR analysis relative to control; assay type: functional
[25] = test system: J774.A1; assay: Immunomodulatory activity in LPS-stimulated mouse J744A.1 cells assessed as increase of CXCL10 gene expression at 40 uM after 6 hrs by RT-PCR analysis relative to control; assay type: functional
[26] = Immunomodulatory activity in HSV1 KOS infected human HCLE cells assessed as increase of IL-1alpha gene expression at 40 uM after 6 hrs by RT-PCR analysis relative to control; assay type: functional
[27] = test system: J774.A1; assay: Immunomodulatory activity in LPS-stimulated mouse J744A.1 cells assessed as increase of CXCL11 gene expression at 40 uM after 6 hrs by RT-PCR analysis relative to control; assay type: functional
[28] = test system: J774.A1; assay: Inhibition of LPS-induced TNFalpha production in mouse J744A.1 cells after 24 hrs by ELISA; assay type: functional, cell-based
[29] = target: Transcription factor p65 (Homo sapiens) (UniProt Q04206); assay: Inhibition of NF-kappaB p65-mediated IL-8 release in HSV1 KOS infected human HCLE cells at 40 uM after 24 hrs by ELISA; assay type: cell-based
[30] = test system: J774.A1; assay: Immunomodulatory activity in LPS-stimulated mouse J744A.1 cells assessed as decrease of Il1b gene expression at 40 uM after 6 hrs by RT-PCR analysis relative to control; assay type: functional
[31] = target: Transcription factor p65 (Homo sapiens) (UniProt Q04206); assay: Effect on NF-kappaB p65-mediated TNFalpha release in human HCLE cells at 40 uM after 24 hrs by ELISA; assay type: cell-based
[32] = target: Transcription factor p65 (Mus musculus) (UniProt Q04207); assay: Effect on NF-kappaB p65 activation in LPS-stimulated mouse J774A.1 cells assessed as NF-kappaB p65 translocation at 40 uM after 24 hrs by indirect immunofluorescence assay
[33] = Immunomodulatory activity in HSV1 KOS infected human HCLE cells assessed as increase of CSF2 (GM-CSF) gene expression at 40 uM after 6 hrs by RT-PCR analysis relative to control; assay type: functional
[34] = Immunomodulatory activity in HSV1 KOS infected human HCLE cells assessed as increase of IL-1RL1 gene expression at 40 uM after 6 hrs by RT-PCR analysis relative to control; assay type: functional
[35] = test system: J774.A1; assay: Immunomodulatory activity in LPS-stimulated mouse J744A.1 cells assessed as increase of Il23a gene expression at 40 uM after 6 hrs by RT-PCR analysis relative to control; assay type: functional

Chain of Transcription factor p65 (Homo sapiens) (Q04206 whole entry): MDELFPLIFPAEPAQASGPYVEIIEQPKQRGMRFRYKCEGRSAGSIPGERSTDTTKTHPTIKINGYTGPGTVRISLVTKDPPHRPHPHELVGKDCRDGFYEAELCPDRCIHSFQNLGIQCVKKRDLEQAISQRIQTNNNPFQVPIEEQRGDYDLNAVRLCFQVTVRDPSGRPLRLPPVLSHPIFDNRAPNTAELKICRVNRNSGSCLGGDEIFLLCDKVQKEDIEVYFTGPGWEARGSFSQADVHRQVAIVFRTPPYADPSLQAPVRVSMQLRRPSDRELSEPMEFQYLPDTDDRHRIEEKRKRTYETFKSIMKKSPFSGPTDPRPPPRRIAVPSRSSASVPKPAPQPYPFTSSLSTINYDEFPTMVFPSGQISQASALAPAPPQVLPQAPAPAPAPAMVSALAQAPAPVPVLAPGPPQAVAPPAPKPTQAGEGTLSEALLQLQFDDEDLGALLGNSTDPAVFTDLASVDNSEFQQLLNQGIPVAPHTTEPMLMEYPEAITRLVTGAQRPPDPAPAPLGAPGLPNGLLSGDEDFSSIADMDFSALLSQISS
Chain of Transcription factor p65 (Mus musculus) (Q04207 whole entry): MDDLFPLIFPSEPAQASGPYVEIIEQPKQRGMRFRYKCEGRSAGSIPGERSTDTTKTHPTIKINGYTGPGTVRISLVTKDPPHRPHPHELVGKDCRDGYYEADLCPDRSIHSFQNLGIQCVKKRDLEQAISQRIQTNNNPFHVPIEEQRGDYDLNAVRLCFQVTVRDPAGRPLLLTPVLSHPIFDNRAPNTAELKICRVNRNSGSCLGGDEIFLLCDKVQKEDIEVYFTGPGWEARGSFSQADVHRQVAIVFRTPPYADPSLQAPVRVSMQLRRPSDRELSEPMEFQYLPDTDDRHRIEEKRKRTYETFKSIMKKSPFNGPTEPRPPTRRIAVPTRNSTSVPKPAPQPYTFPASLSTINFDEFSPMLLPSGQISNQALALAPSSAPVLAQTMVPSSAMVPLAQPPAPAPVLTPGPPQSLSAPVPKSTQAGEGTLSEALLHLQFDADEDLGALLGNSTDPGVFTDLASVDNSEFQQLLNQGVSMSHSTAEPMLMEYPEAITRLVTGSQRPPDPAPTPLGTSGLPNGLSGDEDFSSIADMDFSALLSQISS

Compound: CC[C@@H](C(C)C)[C@H](O)[C@@H](O)[C@@H](C)[C@H]1CC[C@H]2[C@@H]3CCC4=CC(=O)CC[C@]4(C)[C@H]3CC[C@]12C
fold change (FC) [1]: 1.95
Activity [2]: Active
fold change (FC) [3]: 4.4
inhibition at 40 µM [4]: 77.5%
fold change (FC) [5]: 1.53
fold change (FC) [6]: 3.86
Activity [7]: inactive
fold change (FC) [8]: 2.29
fold change (FC) [9]: 4.42
fold change (FC) [10]: 1.27
Activity [11]: inactive
Activity [12]: inactive
inhibition [13]: Dose-dependent effect
IC50 ([13]; J774.A1, 24 h): > 40 µM
inhibition [14]: inactive
inhibition [15]: 5.7%
Activity [16]: Active
fold change (FC) [17]: 4.19
fold change (FC) [18]: 4.41
inhibition [19]: 22.2%
fold change (FC) [20]: 2.49
fold change (FC) [21]: 1.97
inhibition [22]: Active
inhibition [23]: inactive
fold change (FC) [24]: 2.9
fold change (FC) [25]: 11.41
fold change (FC) [26]: 2.9
fold change (FC) [27]: 6.01
inhibition [28]: Dose-dependent effect
IC50 ([28]; J774.A1, 24 h): 7 µM
inhibition [29]: Active
fold change (FC) [30]: 2.58
Activity [31]: inactive
Activity [32]: 87.9%
fold change (FC) [33]: 2.2
fold change (FC) [34]: 5.2
fold change (FC) [35]: 3.19

inhibition [14]: Active
inhibition [15]: inactive
inhibition [19]: inactive
inhibition [22]: Active
inhibition [23]: Active
inhibition [29]: Active
Activity [32]: 100%
Compound: C[C@@H]1C[C@H]2[C@@H]3CCC4=CC(=O)C=C[C@]4(C)[C@@]3(F)[C@@H](O)C[C@]2(C)[C@@]1(O)C(=O)CO
